pEC50: −log10 of the molar value.
Legend:
Test in all cases: O2 consumption (Clark electrode), activation of AOX in inverted membrane vesicles
Assay type in all cases: biochemical
[1] = target: T1, GmAOX1 (Glycine max, UniProt Q07185); details: activator; 2.5 mM NADH, 5 mM DTT, 1 mM KCN, pH 7.0; discussion text b26 prints 6 μM; read-out: Present study / K1/2 PYR
T1 construct: gene AOX1; mature form, predicted mitochondrial target peptide removed, new start Met (forward primer encodes M-ESTLALS), pET22b(+), E. coli BHH8 inverted membrane vesicles; apparent 28 kDa; reduced (DTT)
T1 sequence (Q07185 42-321): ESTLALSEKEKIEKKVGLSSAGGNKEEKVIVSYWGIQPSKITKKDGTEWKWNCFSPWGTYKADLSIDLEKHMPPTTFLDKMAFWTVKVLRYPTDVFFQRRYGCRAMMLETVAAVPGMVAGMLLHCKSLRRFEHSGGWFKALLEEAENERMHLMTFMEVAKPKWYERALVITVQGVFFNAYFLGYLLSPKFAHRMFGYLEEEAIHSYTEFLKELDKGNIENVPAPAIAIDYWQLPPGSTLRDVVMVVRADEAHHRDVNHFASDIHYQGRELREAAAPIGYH
Description: O2 consumption (Clark electrode), activation of AOX in inverted membrane vesicles on GmAOX1

[2] = target: T2, GmAOX2A (Glycine max, UniProt Q41266); details: activator; 2.5 mM NADH, 5 mM DTT, 1 mM KCN, pH 7.0; discussion text b26 prints 90 μM; read-out: Present study / K1/2 PYR
T2 construct: gene AOX2; mature form, predicted mitochondrial target peptide removed, new start Met (forward primer encodes M-MVSPA), pET22b(+), E. coli BHH8 inverted membrane vesicles; apparent 29 kDa; reduced (DTT)
T2 sequence (Q41266 58-333): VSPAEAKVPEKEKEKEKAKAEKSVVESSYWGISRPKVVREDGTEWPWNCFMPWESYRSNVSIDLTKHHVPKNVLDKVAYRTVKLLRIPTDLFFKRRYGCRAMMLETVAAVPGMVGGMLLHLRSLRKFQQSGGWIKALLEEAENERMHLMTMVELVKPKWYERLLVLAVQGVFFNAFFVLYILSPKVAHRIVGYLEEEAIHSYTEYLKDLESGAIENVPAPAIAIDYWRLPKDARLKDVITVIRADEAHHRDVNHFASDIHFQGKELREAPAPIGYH
Description: O2 consumption (Clark electrode), activation of AOX in inverted membrane vesicles on GmAOX2A

[3] = target: T3, GmAOX2D (Glycine max, UniProt O03376); details: activator; 2.5 mM NADH, 5 mM DTT, 1 mM KCN, pH 7.0; read-out: Present study / K1/2 PYR
T3 construct: gene AOX3; mature form, predicted mitochondrial target peptide removed, new start Met (forward primer encodes M-STLPEVK), pET22b(+), E. coli BHH8 inverted membrane vesicles; apparent 31 kDa; reduced (DTT)
T3 sequence (O03376 51-326): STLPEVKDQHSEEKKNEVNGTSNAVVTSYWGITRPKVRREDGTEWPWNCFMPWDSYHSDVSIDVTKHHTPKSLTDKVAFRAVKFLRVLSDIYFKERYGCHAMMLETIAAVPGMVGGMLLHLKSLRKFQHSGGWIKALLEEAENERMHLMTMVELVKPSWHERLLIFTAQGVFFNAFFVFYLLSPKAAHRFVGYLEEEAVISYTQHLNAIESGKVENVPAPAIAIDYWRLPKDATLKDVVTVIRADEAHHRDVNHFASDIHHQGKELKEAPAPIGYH
Description: O2 consumption (Clark electrode), activation of AOX in inverted membrane vesicles on GmAOX2D

- pEC50 [1]: 5.40
- pEC50 [2]: 4.00
- pEC50 [3]: 4.40
Structure (SMILES): CC(=O)C(=O)O [pyruvate]

— paper PMC8801435, “Legume Alternative Oxidase Isoforms Show Differential Sensitivity to Pyruvate Activation” (Frontiers in Plant Science, 2022)
